Results reported in ChEMBL document CHEMBL1133919, “Identification of selective inhibitors of cyclin dependent kinase 4” (Bioorg Med Chem Lett, 2001).

Columns and labels:
[1] = target: T1, Cyclin-dependent kinase 4/cyclin D1 (Homo sapiens, UniProt P11802); test: Inhibitory activity against Cyclin dependent kinase CDK4/D1; assay type: protein-complex assay
[2] = test system: HCT-116; test: Inhibition of colon carcinoma cell line HCT116 proliferation; assay type: functional, cell-based; conditions: Homo sapiens
[3] = test system: SKUT-1A; test: Inhibition of Rb negative Skut 1A cell proliferation; assay type: functional, cell-based; conditions: Homo sapiens
[4] = test system: Skut1B; test: Inhibition of Rb positive Skut 1B cell proliferation; assay type: functional, cell-based; conditions: Homo sapiens
[5] = target: Cyclin-dependent kinase 1 (Homo sapiens) (UniProt P06493); test: Inhibition of Cyclin dependent kinase CDK1/B
Chain of Cyclin-dependent kinase 1 (Homo sapiens) (P06493 whole entry, looked up): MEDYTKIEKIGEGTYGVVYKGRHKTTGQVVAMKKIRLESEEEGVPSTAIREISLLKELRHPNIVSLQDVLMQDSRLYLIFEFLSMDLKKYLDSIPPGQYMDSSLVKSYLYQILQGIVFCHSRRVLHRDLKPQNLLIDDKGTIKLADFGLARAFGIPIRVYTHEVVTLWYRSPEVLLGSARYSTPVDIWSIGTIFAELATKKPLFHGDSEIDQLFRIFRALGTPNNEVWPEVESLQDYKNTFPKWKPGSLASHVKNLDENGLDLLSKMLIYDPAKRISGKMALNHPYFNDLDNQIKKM

[6] = target: Cyclin-dependent kinase 1/cyclin B (Homo sapiens, UniProt P06493); test: Inhibition of CDK1/cyclin B; assay type: protein-complex assay
[7] = target: Cyclin-dependent kinase 2/cyclin E (Homo sapiens, UniProt P24941); test: Inhibition of CDK2/cyclin E; assay type: protein-complex assay
[8] = target: T1, Cyclin-dependent kinase 4/cyclin D1; test: Inhibition of Cyclin dependent kinase CDK4/cyclin D1; assay type: protein-complex assay

T1 sequence (P11802 whole entry): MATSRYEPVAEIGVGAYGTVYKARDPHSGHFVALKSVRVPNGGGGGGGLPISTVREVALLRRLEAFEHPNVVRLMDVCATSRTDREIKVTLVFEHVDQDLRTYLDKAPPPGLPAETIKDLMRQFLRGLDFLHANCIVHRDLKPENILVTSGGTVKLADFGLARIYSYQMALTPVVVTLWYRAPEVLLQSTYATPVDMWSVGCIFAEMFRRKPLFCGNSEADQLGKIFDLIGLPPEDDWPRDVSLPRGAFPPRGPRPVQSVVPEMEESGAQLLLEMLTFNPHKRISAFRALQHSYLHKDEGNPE
T1 sequence (P24385 whole entry, further chain): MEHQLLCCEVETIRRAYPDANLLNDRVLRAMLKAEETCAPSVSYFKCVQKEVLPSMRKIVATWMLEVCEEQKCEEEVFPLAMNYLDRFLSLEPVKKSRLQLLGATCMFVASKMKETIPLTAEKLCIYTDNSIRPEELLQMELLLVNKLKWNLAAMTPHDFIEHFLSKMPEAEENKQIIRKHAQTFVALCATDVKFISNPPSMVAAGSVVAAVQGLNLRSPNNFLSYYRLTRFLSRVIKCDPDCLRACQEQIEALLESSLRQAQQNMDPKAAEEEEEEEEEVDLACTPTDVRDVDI

Q: `Oc1ccc2ccc3[nH]c4cc(-c5ccccc5)ccc4c3c2c1` was tested. Which IC50 [1] did it give?
A: The IC50 was 22 µM.

Q: For `c1ccc(-c2cccc3c2[nH]c2ccc4ccccc4c23)cc1`, which IC50 [1] is on record?
A: Its IC50 is greater than 341 µM.

Q: How did the IC50 [1] turn out when `Oc1ccc2ccc3[nH]c4cccc(-c5ccccc5)c4c3c2c1` was run?
A: The IC50 was 83 µM.

Q: Which IC50 [1] does the source give for `Oc1cccc2c1ccc1[nH]c3c(-c4ccccc4)cccc3c12` here?
A: The IC50 was 5.8 µM.

Q: With `c1ccc2c(c1)[nH]c1ccc3ccncc3c12` as the compound, how does the IC50 [1] read?
A: Its IC50 is 159 µM.

Q: Which IC50 [1] does the source give for `[O-][n+]1ccc2c(ccc3[nH]c4ccccc4c32)c1` here?
A: The IC50 was 59 µM.

Q: With `Nc1ccc2ccc3[nH]c4c(-c5ccccc5)cccc4c3c2c1` as the compound, how does the IC50 [1] read?
A: Its IC50 is 27.3 µM.

Q: For `Nc1cccc(-c2cccc3c2[nH]c2ccc4ccc(O)cc4c23)c1`, which IC50 [1] is on record?
A: The IC50 was 2.3 µM.

Q: And the IC50 [2]?
A: The IC50 was 9.6 µM.

Q: And the IC50 [3]?
A: The IC50 was 11.6 µM.

Q: What about the IC50 [4] of the same compound?
A: Its IC50 is 4.1 µM.

Q: What about the IC50 [5] of the same compound?
A: The IC50 was 74.5 µM.

Q: Which IC50 [1] does the source give for `[O-][n+]1ccc2ccc3[nH]c4ccccc4c3c2c1` here?
A: Its IC50 is 605 µM.

Q: How did the IC50 [1] turn out when `Oc1ccc2ccc3[nH]c4ccc(-c5ccccc5)cc4c3c2c1` was run?
A: Its IC50 is 37.5 µM.

Q: `Oc1ccc2ccc3[nH]c4c(-c5ccccc5)cccc4c3c2c1` was tested. Which IC50 [6] did it give?
A: The IC50 was 95 µM.

Q: And the IC50 [7]?
A: The IC50 was 97 µM.

Q: What about the IC50 [8] of the same compound?
A: The IC50 was 3.6 µM.

Q: And the IC50 [2]?
A: The IC50 was 10.2 µM.

Q: And the IC50 [3]?
A: Its IC50 is 10.7 µM.

Q: And the IC50 [4]?
A: The IC50 was 2.8 µM.

Q: How did the IC50 [1] turn out when `c1ccc2c(c1)[nH]c1ccc3ncccc3c12` was run?
A: Its IC50 is 197 µM.

Q: `c1ccc2c(c1)[nH]c1ccc3cnccc3c12` was tested. Which IC50 [1] did it give?
A: The IC50 was 30 µM.

Q: For `Oc1cccc2ccc3[nH]c4c(-c5ccccc5)cccc4c3c12`, which IC50 [1] is on record?
A: The IC50 was 19.5 µM.

Q: For `COc1ccc2ccc3[nH]c4c(-c5ccccc5)cccc4c3c2c1`, which IC50 [1] is on record?
A: The IC50 was greater than 309 µM.

Q: Which IC50 [1] does the source give for `c1cnc2c(c1)ccc1[nH]c3ccccc3c12` here?
A: The IC50 was 442 µM.

Q: For `Oc1ccc2ccc3[nH]c4c(-c5ccc(Cl)cc5)cccc4c3c2c1`, which IC50 [1] is on record?
A: The IC50 was 9.9 µM.

Q: What about the IC50 [2] of the same compound?
A: The IC50 was 51 µM.

Q: What about the IC50 [3] of the same compound?
A: The IC50 was 36 µM.

Q: What about the IC50 [4] of the same compound?
A: Its IC50 is 10.2 µM.

Q: How did the IC50 [1] turn out when `Oc1ccc(-c2cccc3c2[nH]c2ccc4ccc(O)cc4c23)cc1` was run?
A: The IC50 was 1.9 µM.

Q: What about the IC50 [2] of the same compound?
A: The IC50 was 2.2 µM.

Q: And the IC50 [3]?
A: Its IC50 is 5.6 µM.

Q: And the IC50 [4]?
A: The IC50 was 2.3 µM.

Q: `Oc1ccc2c(ccc3[nH]c4c(-c5ccccc5)cccc4c32)c1` was tested. Which IC50 [1] did it give?
A: Its IC50 is 29 µM.

Q: With `Oc1ccc2ccc3[nH]c4ccccc4c3c2c1` as the compound, how does the IC50 [1] read?
A: Its IC50 is 17.4 µM.
